Patent US20230099293A1, “OGA INHIBITOR COMPOUNDS” (priority 2019, published 2023)

Key:
[1] = biological target: T1, recombinant human Meningioma Expressed Antigen 5 (MGEA5), also referred to as O-GlcNAcase (OGA) (Homo sapiens, UniProt O60502); experiment: OGA biochemical assay (inhibition of FM-GlcNAc hydrolysis, fluorescence); details: for IC50: Enzymatic hOGA; for Emax: read-out: Enzymatic Emax (%)
T1 construct: Full length OGA enzyme was purchased at OriGene (cat #TP322411); purchased OriGene TP322411
T1 sequence (O60502 1-916): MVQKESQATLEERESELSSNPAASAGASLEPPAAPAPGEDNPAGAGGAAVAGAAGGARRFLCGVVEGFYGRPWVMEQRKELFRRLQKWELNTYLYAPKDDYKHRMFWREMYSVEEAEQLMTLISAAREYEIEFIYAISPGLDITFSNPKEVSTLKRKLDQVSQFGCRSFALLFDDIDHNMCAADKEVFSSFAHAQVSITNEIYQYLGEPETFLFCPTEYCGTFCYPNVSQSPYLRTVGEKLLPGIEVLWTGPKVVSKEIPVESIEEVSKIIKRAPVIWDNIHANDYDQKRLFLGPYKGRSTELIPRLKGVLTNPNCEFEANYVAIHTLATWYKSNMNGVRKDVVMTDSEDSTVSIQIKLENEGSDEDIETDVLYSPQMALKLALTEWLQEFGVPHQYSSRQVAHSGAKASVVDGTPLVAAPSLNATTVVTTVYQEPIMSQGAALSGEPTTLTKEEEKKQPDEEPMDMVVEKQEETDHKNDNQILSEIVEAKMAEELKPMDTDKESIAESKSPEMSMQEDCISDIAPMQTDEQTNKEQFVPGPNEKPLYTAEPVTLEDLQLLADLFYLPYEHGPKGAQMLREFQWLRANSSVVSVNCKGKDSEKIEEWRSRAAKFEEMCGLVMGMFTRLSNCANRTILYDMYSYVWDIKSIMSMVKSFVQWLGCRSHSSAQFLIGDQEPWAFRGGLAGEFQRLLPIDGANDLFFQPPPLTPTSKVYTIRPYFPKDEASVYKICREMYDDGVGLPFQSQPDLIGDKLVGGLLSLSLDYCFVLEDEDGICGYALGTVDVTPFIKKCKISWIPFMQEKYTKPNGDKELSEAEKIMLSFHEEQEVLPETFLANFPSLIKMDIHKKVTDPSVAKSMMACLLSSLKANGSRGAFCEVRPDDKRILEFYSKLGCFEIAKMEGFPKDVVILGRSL
Protocol: The hydrolysis FM-GlcNAc (Marker Gene technologies, cat #M1485) results in the formation of β-D-N-glucosamineacetate and fluorescein. The fluorescence of the latter can be measured at excitation wavelength 485 nm and emission wavelength 538 nm. An increase in enzyme activity results in an increase in fluorescence signal. Full length OGA enzyme was purchased at OriGene (cat #TP322411). The enzyme was stored in 25 mM Tris.HCl, pH 7.3, 100 mM glycine, 10% glycerol at −20° C. […] The assay was performed in 200 mM Citrate/phosphate buffer supplemented with 0.005% Tween-20. 35.6 g Na2HIPO42H2O (Sigma, #C0759) were dissolved in 1 L water to obtain a 200 mM solution. […] The buffer to stop the reaction consists of a 500 mM Carbonate buffer, pH 11.0. […] OGA was used at a 2 nM concentration and FM-GlcNAc at a 100 uM final concentration. Dilutions were prepared in assay buffer.
Plates were pre-incubated for 60 min at room temperature and then 2 μl FM-GlcNAc substrate mix added. […] Plates were briefly centrifuged for 1 min at 1000 rpm and incubate at room temperature for 6 h. To stop the reaction 5 μl STOP buffer were added and plates centrifuge again 1 min at 1000 rpm. Fluorescence was quantified in the Thermo Scientific Fluoroskan Ascent or the PerkinElmer EnVision with excitation wavelength 485 nm and emission wavelength 538 nm.
For analysis a best-fit curve is fitted by a minimum sum of squares method. From this an IC50 value and Hill coefficient was obtained. High control (no inhibitor) and low control (saturating concentrations of standard inhibitor) were used to define the minimum and maximum values.

hOGA = biological target: T2, hOGA (Homo sapiens, UniProt O60502); experiment: OGA cellular assay (ICC detection of O-GlcNAcylated proteins in HEK293 cells inducible for P301L mutant human Tau); assay type: cell-based; parameters: Emax: dose or concentration left out as unconfirmed; details: for EC50: Cellular hOGA; for Emax: HEK293, read-out: Cellular Emax (%)
T2 construct: endogenous in cells; host or cells: HEK293 cells inducible for P301L mutant human Tau (isoform 2N4R)
T2 sequence (O60502 1-916): T1 sequence (O60502 1-916)
Protocol: HEK293 cells inducible for P301L mutant human Tau (isoform 2N4R) were established at Janssen. Thiamet-G was used for both plate validation (high control) and as reference compound (reference EC50 assay validation). OGA inhibition is evaluated through the immunocytochemical (ICC) detection of O-GlcNAcylated proteins by the use of a monoclonal antibody (CTD110.6; Cell Signaling, #9875) detecting O-GlcNAcylated residues as previously described (Dorfmueller et al. 2010 Chemistry & biology, 17:1250). Inhibition of OGA will result in an increase of O-GlcNAcylated protein levels resulting in an increased signal in the experiment. Cell nuclei are stained with Hoechst to give a cell culture quality control and a rough estimate of immediate compounds toxicity, if any. ICC pictures are imaged with a Perkin Elmer Opera Phenix plate microscope and quantified with the provided software Perkin Elmer Harmony 4.1.
Cells were propagated in DMEM high Glucose (Sigma, #D5796) following standard procedures. 2 days before the cell assay cells are split, counted and seeded in Poly-D-Lysine (PDL) coated 96-wells (Greiner, #655946) plate at a cell density of 12,000 cells per cm^2 (4,000 cells per well) in 100 μl of Assay Medium (Low Glucose medium is used to reduce basal levels of GlcNAcylation) (Park et al. 2014 The Journal of biological chemistry 289:13519). At the day of compound test medium from assay plates was removed and replenished with 90 μl of fresh Assay Medium. 10 μl of compounds at a 10 fold final concentration were added to the wells. Plates were centrifuged shortly before incubation in the cell incubator for 6 hours. DMSO concentration was set to 0.2%. Medium is discarded by applying vacuum. For staining of cells medium was removed and cells washed once with 100 μl D-PBS (Sigma, #D8537). From next step onwards unless other stated assay volume was always 50 μl and incubation was performed without agitation and at room temperature. Cells were fixed in 50 μl of a 4% paraformaldehyde (PFA, Alpha aesar, #043368) PBS solution for 15 minutes at room temperature. […] Before analysis samples were washed 2 times manually for 5 minutes in ICC base buffer.
Imaging is performed using Perkin Elmer Phenix Opera using a water 20× objective and recording 9 fields per well. Intensity readout at 488 nm is used as a measure of O-GlcNAcylation level of total proteins in wells. To assess potential toxicity of compounds nuclei were counted using the Hoechst staining. IC50-values are calculated using parametric non-linear regression model fitting. As a maximum inhibition Thiamet Gat a 200 uM concentration is present on each plate. In addition, a concentration response of Thiamet G is calculated on each plate.

[2] = pIC50, Table 5, full length OGA 2 nM, FM-GlcNAc 100 uM, 6 h at room temperature
[3] = pEC50, Table 5, HEK293 P301L Tau cells, 6 hours incubation, O-GlcNAcylation readout

Structure (SMILES)	melting point [°C]	IC50 [1, 2] [nM]	Emax [1] [%]	EC50 (hOGA; [3]) [nM]	Emax (hOGA) [%]	IC50 ([1]; pIC50, second table, averaged values over several runs, obtained after recalibration of the equipment) [nM]	EC50 (hOGA; pEC50, second table, averaged values over several runs, obtained after recalibration of the equipment) [nM]
Cc1cc(C(F)(F)F)cc(F)c1Nc1nccc2c1ncn2CC(=O)N(C)C1CC1	219.8						
Cc1cc(C(F)(F)F)cc(F)c1Nc1nccc2c1ncn2CC(=O)N(C)CC(F)(F)F	238.3						
[2H]C([2H])([2H])N(C)C(=O)Cn1cnc2c(Nc3c(C)cc(C(F)(F)F)cc3C)nccc21	212.2						
Cc1ccnc(C(C)C)c1Nc1nccc2c1ncn2CC(C)(F)F [Compound 1, 1-(2,2-Difluoropropyl)-N-(2-isopropyl-4-methylpyridin-3-yl)-1H-imidazo[4,5-c]pyridin-4-amine]		5.13	101	45.7	81		
Cc1cc(C(F)(F)F)cc(Cl)c1Nc1nccc2c1ncn2CC(C)(F)F [Compound 2]		6.03	99	95.5	87		
Cc1cc(F)cc(F)c1Nc1nccc2c1ncn2CC(C)(F)F [Compound 3]	174.99	25.7	101	741	57		
CNC(=O)Cn1cnc2c(Nc3c(C)cc(C(F)(F)F)cc3C)nccc21 [Compound 4, 2-(4-((2,6-Dimethyl-4-(trifluoromethyl)phenyl)amino)-1H-imidazo[4,5-c]pyridin-1-yl)-N-methylacetamide]	275.1	3.39	98	55	101		
Cc1cc(C(F)(F)F)cc(C)c1Nc1nccc2c1ncn2CC(N)=O [Compound 5, 2-[4-[2,6-Dimethyl-4-(trifluoromethyl)anilino]imidazo[4,5-c]pyridin-1-yl]acetamide]	266.8	120	91	447	67		
Cc1cc(C(F)(F)F)cc(C)c1Nc1ncc(C)c2c1ncn2CC(=O)N(C)C [Compound 6, 2-(4-((2,6-Dimethyl-4-(trifluoromethyl)phenyl)amino)-7-methyl-1H-imidazo[4,5-c]pyridin-1-yl)-N,N-dimethylacetamide]	238.3	19.1	99	288	60		
CN(C)C(=O)Cn1cnc2c(Nc3c(Cl)cc(OC(F)(F)F)cc3Cl)nccc21 [Compound 7]	201.5	6.92	102	372	66		
COc1cc(C)c(Nc2nccc3c2ncn3CC(=O)N(C)C)c(C)c1 [Compound 8]	230	5.5	97	26.9	98		
Cc1cc(OC(F)(F)F)cc(C)c1Nc1nccc2c1ncn2CC(=O)N(C)C [Compound 9]	186.5	6.76	99	58.9	82		
CCc1cc(C(F)(F)F)cc(C)c1Nc1nccc2c1ncn2CC(=O)N(C)C [Compound 10]	211.6	9.33	100	100	100		
Cc1cc(Cl)cc(C)c1Nc1nccc2c1ncn2CC(=O)N(C)C [Compound 11]	209.8	10	99	209	62		
Cc1cc(C(F)(F)F)cc(C(C)C)c1Nc1nccc2c1ncn2CC(=O)N(C)C [Compound 12]	234.4	10.7	101	46.8	88		
Cc1cc2c(cnn2C)c(C)c1Nc1nccc2c1ncn2CC(=O)N(C)C [Compound 13]	265.1	13.8	98	69.2	113		
Cc1ccnc(C(C)C)c1Nc1nccc2c1ncn2CC(=O)N(C)C [Compound 14]	223.3	14.1	100	427	75		
Cc1cc(C(F)(F)F)cc(Cl)c1Nc1nccc2c1ncn2CC(=O)N(C)C [Compound 15]	214.14	14.1	98	204	64		
Cc1cc(F)cc(F)c1Nc1nccc2c1ncn2CC(=O)N(C)C [Compound 26]		191	98	> 1000	8		
Cc1cc(C(F)(F)F)nc(C)c1Nc1nccc2c1ncn2CC(=O)N1CCC1 [Compound 51]		1480	82	> 1000	15		
CCCCn1cnc2c(Nc3c(Cl)cncc3Cl)nccc21 [Compound 58]		525	95				
CCCCn1ncc2c(Nc3c(Cl)cncc3Cl)nccc21 [Compound 67]		513	94	> 1000	6		
CCCCn1ncc2c(Nc3c(C)cncc3C)nccc21 [Compound 68]		7590	61				
Cc1cc(C(F)(F)F)cc(C)c1Nc1nccc2c1ncn2-c1ncn(C)c1C [Compound 83]						1170	> 1000
